pIC50: −log10 of the molar value.
Molecular target: BRD4 (Homo sapiens, UniProt O60885)
Assay: Time resolved fluorescence resonance energy transfer (TR-FRET) binding assay, bromodomain BRD4
Details: one of the FRET assays described; read-out: FRET BRD4 IC50

## CNS(=O)(=O)c1ccc2c3ncc(-c4c(C)nnn4C)cc3n([C@H](c3ccccc3)C3CCOCC3)c2n1 [Example 199, 5-(Dimethyl-1H-1,2,3-triazol-5-yl)-N-methyl-8-[(S)-oxan-4-yl(phenyl)methyl]-3,8,10-triazatricyclo[7.4.0.0^2,^7]trideca-1(9),2(7),3,5,10,12-hexaene-11-sulfonamide]
  pIC50: > 8.00

## [2H]C([2H])([2H])c1nnn(C)c1-c1cnc2c3c(OCC4CC4)nccc3n([C@H](c3ccccc3)C3CCOCC3)c2c1 [Example 130, 13-(Cyclopropylmethoxy)-5-[4-(^2H3)methyl-1-methyl-1H-1,2,3-triazol-5-yl]-8-[(S)-oxan-4-yl(phenyl)methyl]-3,8,12-triazatricyclo[7.4.0.0^2,^7]trideca-1(13),2(7),3,5,9,11-hexaene]
  pIC50: > 9.00

## Cc1noc(C)c1-c1cnc2c3cnc(C(C)(C)O)cc3n([C@H](c3ccccc3)C3CCOCC3)c2c1 [Example 335]
  pIC50: > 8.00

## [2H]C([2H])([2H])c1nnn(C)c1-c1cnc2c3c(OC)nc(S(C)(=O)=O)cc3n([C@H](c3ccccc3)C3CCOCC3)c2c1 [Example 342, 11-Methanesulfonyl-13-methoxy-5-[4-(^2H3)methyl-1-methyl-1H-1,2,3-triazol-5-yl]-8-[(S)-oxan-4-yl(phenyl)methyl]-3,8,12-triazatricyclo[7.4.0.0^2,^7]trideca-1(13),2(7),3,5,9,11-hexaene]
  pIC50: > 8.00

## Cc1nnn(C)c1-c1cnc2c3ccc(N4CCC(C#N)CC4)nc3n([C@H](c3ccccc3F)C3CCOCC3)c2c1 [Example 274, 1-[5-(Dimethyl-1H-1,2,3-triazol-5-yl)-8-[(S)-(2-fluorophenyl)(oxan-4-yl)methyl]-3,8,10-triazatricyclo[7.4.0.0^2,^7]trideca-1(13),2(7),3,5,9,11-hexaen-11-yl]piperidine-4-carbonitrile]
  pIC50: > 8.00

## CCOc1ncc(S(C)(=O)=O)c2c1c1ncc(-c3c(C)nnn3C)cc1n2[C@H](c1ccccc1)C1CCOCC1 [Example 53, 5-(Dimethyl-1H-1,2,3-triazol-5-yl)-13-ethoxy-10-methanesulfonyl-8-[(S)-oxan-4-yl(phenyl)methyl]-3,8,12-triazatricyclo[7.4.0.0^2,^7]trideca-1(13),2(7),3,5,9,11-hexaene]
  pIC50: > 9.00

## COc1nccc2c3ncc(-c4c(C)nnn4C)cc3n(C(c3ccc(F)cc3F)C3CCOCC3)c12 (racemic) [Example 25, 8-[(2,4-Difluorophenyl)(oxan-4-yl)methyl]-5-(dimethyl-1H-1,2,3-triazol-5-yl)-10-methoxy-3,8,11-triazatricyclo[7.4.0.0^2,^7]trideca-1(13),2(7),3,5,9,11-hexaene]
  pIC50: > 8.00

## [2H]C([2H])([2H])c1nnn(C)c1-c1cnc2c3ccc(C4CCS(=O)(=O)CC4)nc3n([C@H](c3ccccc3)C3CCOCC3)c2c1 [Example 205, 4-{5-[4-(^2H3)Methyl-1-methyl-1H-1,2,3-triazol-5-yl]-8-[(S)-oxan-4-yl(phenyl)methyl]-3,8,10-triazatricyclo[7.4.0.0^2,^7]trideca-1(9),2(7),3,5,10,12-hexaen-11-yl}-1λ^6-thiane-1,1-dione]
  pIC50: > 8.00

## [2H]C([2H])([2H])c1onc(C)c1-c1cnc2c3cnc(C(C)(C)O)cc3n([C@H](c3ccc(F)cc3)C3CCOCC3)c2c1 [Example 225, 2-{8-[(S)-(4-Fluorophenyl)(oxan-4-yl)methyl]-5-[5-(^2H3)methyl-3-methyl-1,2-oxazol-4-yl]-3,8,12-triazatricyclo[7.4.0.0^2,^7]trideca-1(13),2(7),3,5,9,11-hexaen-11-yl}propan-2-ol]
  pIC50: > 9.00

## [2H]C([2H])([2H])c1nnn(C)c1-c1cnc2c3cnc(C(C)(C)O)cc3n([C@H](c3ccccc3)C3CCOCC3)c2c1 [Example 284, 2-{5-[4-(^2H3)Methyl-1-methyl-1H-1,2,3-triazol-5-yl]-8-[(S)-oxan-4-yl(phenyl)methyl]-3,8,12-triazatricyclo[7.4.0.0^2,^7]trideca-1(9),2(7),3,5,10,12-hexaen-11-yl}propan-2-ol]
  pIC50: > 9.00

## COc1ncc(S(C)(=O)=O)c2c1c1ncc(-c3c(C)noc3C)cc1n2[C@H](c1ccc(F)cc1)C1CCOCC1 [Example 49, 5-(Dimethyl-1,2-oxazol-4-yl)-8-[(S)-(4-fluorophenyl)(oxan-4-yl)methyl]-10-methanesulfonyl-13-methoxy-3,8,12-triazatricyclo[7.4.0.0^2,^7]trideca-1(13),2(7),3,5,9,11-hexaene]
  pIC50: > 9.00

## [2H]C([2H])([2H])c1nnn(C)c1-c1cnc2c3c(NCC(F)F)nccc3n([C@H](c3ccccc3)C3CCOCC3)c2c1 [Example 133, N-(2,2-Difluoroethyl)-5-[4-(^2H3)methyl-1-methyl-1H-1,2,3-triazol-5-yl]-8-[(S)-oxan-4-yl(phenyl)methyl]-3,8,12-triazatricyclo[7.4.0.0^2,^7]trideca-1(13),2(7),3,5,9,11-hexaen-13-amine]
  pIC50: > 9.00

## Cc1nnn(C)c1-c1cnc2c3ccc(C(C)(C)O)nc3n([C@H](c3ccccc3)C3CCOCC3)c2c1 [Example 174, 2-[5-(Dimethyl-1H-1,2,3-triazol-5-yl)-8-[(S)-oxan-4-yl(phenyl)methyl]-3,8,10-triazatricyclo[7.4.0.0^2,^7]trideca-1(9),2(7),3,5,10,12-hexaen-11-yl]propan-2-ol]
  pIC50: > 9.00

## [2H]C([2H])([2H])c1nnn(C)c1-c1cnc2c3c(O)ncc(S(C)(=O)=O)c3n([C@H](c3ccccc3)C3CCC(F)(F)CC3)c2c1 [Example 92, 8-[(S)-(4,4-Difluorocyclohexyl)(phenyl)methyl]-10-methanesulfonyl-5-[4-(^2H3)methyl-1-methyl-1H-1,2,3-triazol-5-yl]-3,8,12-triazatricyclo[7.4.0.0^2,^7]trideca-1(13),2(7),3,5,9,11-hexaen-13-ol]
  pIC50: > 8.00

## [2H]C([2H])([2H])c1nnn(C)c1-c1cnc2c3ccc(C4=CCSCC4)nc3n([C@H](c3ccccc3)C3CCOCC3)c2c1 [Example 203, 11-(3,6-Dihydro-2H-thiopyran-4-yl)-5-[4-(^2H3)methyl-1-methyl-1H-1,2,3-triazol-5-yl]-8-[(S)-oxan-4-yl(phenyl)methyl]-3,8,10-triazatricyclo[7.4.0.0^2,^7]trideca-1(9),2(7),3,5,10,12-hexaene]
  pIC50: > 8.00

## Cc1noc(C)c1-c1cnc2c3ccc(S(C)(=O)=O)nc3n([C@H](c3ccccc3)C3CCOCC3)c2c1 [Example 144, 5-(Dimethyl-1,2-oxazol-4-yl)-11-methanesulfonyl-8-[(S)-oxan-4-yl(phenyl)methyl]-3,8,10-triazatricyclo[7.4.0.0^2,^7]trideca-1(13),2(7),3,5,9,11-hexaene]
  pIC50: > 8.00

## [2H]C([2H])([2H])c1nnn(C)c1-c1cnc2c3ccc(-c4c(C([2H])([2H])[2H])nnn4C)nc3n(C(c3ncccc3F)C3CCOCC3)c2c1 (centres unmarked) [Example 247, 8-[(3-Fluoropyridin-2-yl)(oxan-4-yl)methyl]-5,11-bis[4-(^2H3)methyl-1-methyl-1H-1,2,3-triazol-5-yl]-3,8,10-triazatricyclo[7.4.0.0^2,^7]trideca-1(13),2(7),3,5,9,11-hexaene]
  pIC50: > 9.00

From patent US9725449B2, “Tricyclic compounds as anticancer agents” (BRISTOL-MYERS SQUIBB COMPANY, priority 2015, dated 2017)
